Measured values as given in patent publication US20230085307A1, “PYRIDAZINONE COMPOUND AND HERBICIDE” (NISSAN CHEMICAL CORPORATION, priority 2019, published 2023).

Each compound was assayed on rice flat sedge (assay: Test Example 3: herbicidal effect by foliage application, Wagner pot (Table 18, symbol E)). Settings: 320 g/ha.
Assay type: in vivo, rice flat sedge (Cyperus iria)
Method in brief: (§1)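 Plants were sown in alluvial soil held under 0.1–0.5 cm standing water and grown 14 days in a greenhouse at 25–30 °C. An emulsifiable formulation, water-diluted to the set dose, was then sprayed onto the foliage, and effects were scored three weeks later using previously defined criteria.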

Row | SMILES | herbicidal effect on E (rice flat sedge), rating 0-5
1 | Cc1nn(C)c(=O)c(-c2c(-c3ccc(C(F)(F)F)cc3)sc3ccccc23)c1O [1-129] | 5 (Herbicidal rate of 90% or more (almost completely withered))

What follows are compounds tested on green foxtail (assay: Test Example 5: herbicidal effect by foliage application, plastic box (Table 20, symbol G)). Settings: foliage application, AAH 320 g/ha, three weeks after application.
Assay type: in vivo, green foxtail (Setaria viridis)
Method in brief: (§2)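 Plants were sown into sterilized diluvial soil under about 1.5 cm cover and kept in a greenhouse at 25° C. to 30° C. Fourteen days on, foliage received an even spray of the diluted emulsion. Herbicidal or crop effect was judged three weeks afterwards.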

Row | SMILES | G: green foxtail, herbicidal effect
2 | Cc1nn(C)c(=O)c(-c2c(-c3ccc(C(F)(F)F)cc3)sc3ccccc23)c1O [1-129] | 2 (Herbicidal rate of 20% or more and less than 40%)

What follows are compounds tested on blackgrass (assay: Test Example 5: herbicidal effect by foliage application, plastic box (Table 20, symbol J)). Settings: foliage application, AAH 320 g/ha, three weeks after application.
Assay type: in vivo, blackgrass (Alopecurus myosuroides)
Method in brief: as §2

Row | SMILES | J: blackgrass, herbicidal effect
3 | Cc1nn(C)c(=O)c(-c2c(-c3ccc(C(F)(F)F)cc3)sc3ccccc23)c1O [1-129] | 0 (Herbicidal rate of 5% or less (almost no effect))

The compounds below were run on barnyard grass (assay: Test Example 4: herbicidal effect by soil treatment (Table 19, symbol H)). Settings: AAH 320 g/ha.
Assay type: in vivo, barnyard grass (Echinochloa crus-galli)
Method in brief: (§3)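 In this soil treatment, the formulated compound reached the seeds only through the soil: seeds were buried about 1.5 cm deep in sterilized diluvial soil, then the diluted emulsion was sprayed over the surface. After three weeks at 25° C. to 30° C. in a greenhouse, effects were graded on criteria from an earlier test.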

Row | SMILES | H: barnyard grass, herbicidal effect rating
4 | Cc1nn(C)c(=O)c(-c2c(-c3ccc(C(F)(F)F)cc3)sc3ccccc23)c1O [1-129] | 0 (Herbicidal rate of 5% or less (almost no effect))

Each compound was assayed on barnyard grass (assay: Test Example 3: herbicidal effect by foliage application, Wagner pot (Table 18, symbol H)). Settings: 320 g/ha.
Assay type: in vivo, barnyard grass (Echinochloa crus-galli)
Method in brief: as §1

Row | SMILES | herbicidal effect on H (barnyard grass), rating 0-5
5 | Cc1nn(C)c(=O)c(-c2c(-c3ccc(C(F)(F)F)cc3)sc3ccccc23)c1O [1-129] | 3 (Herbicidal rate of 40% or more and less than 70%)

These compounds were tested on lambsquarters (assay: Test Example 5: herbicidal effect by foliage application, plastic box (Table 20, symbol O)). Settings: foliage application, AAH 320 g/ha, three weeks after application.
Assay type: in vivo, lambsquarters (Chenopodium album)
Method in brief: as §2

Row | SMILES | O: lambsquarters, herbicidal effect
6 | Cc1nn(C)c(=O)c(-c2c(-c3ccc(C(F)(F)F)cc3)sc3ccccc23)c1O [1-129] | 4 (Herbicidal rate of 70% or more and less than 90%)

These compounds were tested on redroot pigweed (assay: Test Example 4: herbicidal effect by soil treatment (Table 19, symbol N)). Settings: AAH 320 g/ha.
Assay type: in vivo, redroot pigweed (Amaranthus retroflexus)
Method in brief: as §3

Row | SMILES | N: redroot pigweed, herbicidal effect rating
7 | Cc1nn(C)c(=O)c(-c2c(-c3ccc(C(F)(F)F)cc3)sc3ccccc23)c1O [1-129] | 5 (Herbicidal rate of 90% or more (almost completely withered))

Each compound was assayed on windgrass (assay: Test Example 4: herbicidal effect by soil treatment (Table 19, symbol L)). Settings: AAH 320 g/ha.
Assay type: in vivo, windgrass (Apera spica-venti)
Method in brief: as §3

Row | SMILES | L: windgrass, herbicidal effect rating
8 | Cc1nn(C)c(=O)c(-c2c(-c3ccc(C(F)(F)F)cc3)sc3ccccc23)c1O [1-129] | 0 (Herbicidal rate of 5% or less (almost no effect))

Each compound was assayed on green foxtail (assay: Test Example 4: herbicidal effect by soil treatment (Table 19, symbol G)). Settings: AAH 320 g/ha.
Assay type: in vivo, green foxtail (Setaria viridis)
Method in brief: as §3

Row | SMILES | G: green foxtail, herbicidal effect rating
9 | Cc1nn(C)c(=O)c(-c2c(-c3ccc(C(F)(F)F)cc3)sc3ccccc23)c1O [1-129] | 0 (Herbicidal rate of 5% or less (almost no effect))

What follows are compounds tested on chickweed (assay: Test Example 4: herbicidal effect by soil treatment (Table 19, symbol P)). Settings: AAH 320 g/ha.
Assay type: in vivo, common chickweed (Stellaria media)
Method in brief: as §3

Row | SMILES | P: chickweed, herbicidal effect rating
10 | Cc1nn(C)c(=O)c(-c2c(-c3ccc(C(F)(F)F)cc3)sc3ccccc23)c1O [1-129] | 1 (Herbicidal rate of 5% or more and less than 20%)

Each compound was assayed on chickweed (assay: Test Example 5: herbicidal effect by foliage application, plastic box (Table 20, symbol P)). Settings: foliage application, AAH 320 g/ha, three weeks after application.
Assay type: in vivo, common chickweed (Stellaria media)
Method in brief: as §2

Row | SMILES | P: chickweed, herbicidal effect
11 | Cc1nn(C)c(=O)c(-c2c(-c3ccc(C(F)(F)F)cc3)sc3ccccc23)c1O [1-129] | 5 (Herbicidal rate of 90% or more (almost completely withered))

Each compound was assayed on velvetleaf (assay: Test Example 5: herbicidal effect by foliage application, plastic box (Table 20, symbol M)). Settings: foliage application, AAH 320 g/ha, three weeks after application.
Assay type: in vivo, velvetleaf (Abutilon theophrasti)
Method in brief: as §2

Row | SMILES | M: velvetleaf, herbicidal effect
12 | Cc1nn(C)c(=O)c(-c2c(-c3ccc(C(F)(F)F)cc3)sc3ccccc23)c1O [1-129] | 5 (Herbicidal rate of 90% or more (almost completely withered))

Each compound was assayed on southern crabgrass (assay: Test Example 5: herbicidal effect by foliage application, plastic box (Table 20, symbol F)). Settings: foliage application, AAH 320 g/ha, three weeks after application.
Assay type: in vivo, southern crabgrass (Digitaria ciliaris)
Method in brief: as §2

Row | SMILES | F: southern crabgrass, herbicidal effect
13 | Cc1nn(C)c(=O)c(-c2c(-c3ccc(C(F)(F)F)cc3)sc3ccccc23)c1O [1-129] | 0 (Herbicidal rate of 5% or less (almost no effect))

What follows are compounds tested on barnyard grass (assay: Test Example 5: herbicidal effect by foliage application, plastic box (Table 20, symbol H)). Settings: foliage application, AAH 320 g/ha, three weeks after application.
Assay type: in vivo, barnyard grass (Echinochloa crus-galli)
Method in brief: as §2

Row | SMILES | H: barnyard grass, herbicidal effect
14 | Cc1nn(C)c(=O)c(-c2c(-c3ccc(C(F)(F)F)cc3)sc3ccccc23)c1O [1-129] | 3 (Herbicidal rate of 40% or more and less than 70%)

Each compound was assayed on Chinese sprangletop (assay: Test Example 3: herbicidal effect by foliage application, Wagner pot (Table 18, symbol D)). Settings: 320 g/ha.
Assay type: in vivo, chinese sprangletop (Leptochloa chinensis)
Method in brief: as §1

Row | SMILES | herbicidal effect on D (Chinese sprangletop), rating 0-5
15 | Cc1nn(C)c(=O)c(-c2c(-c3ccc(C(F)(F)F)cc3)sc3ccccc23)c1O [1-129] | 3 (Herbicidal rate of 40% or more and less than 70%)

These compounds were tested on Italian ryegrass (assay: Test Example 4: herbicidal effect by soil treatment (Table 19, symbol K)). Settings: AAH 320 g/ha.
Assay type: in vivo, Italian ryegrass (Lolium multiflorum)
Method in brief: as §3

Row | SMILES | K: Italian ryegrass, herbicidal effect rating
16 | Cc1nn(C)c(=O)c(-c2c(-c3ccc(C(F)(F)F)cc3)sc3ccccc23)c1O [1-129] | 5 (Herbicidal rate of 90% or more (almost completely withered))

What follows are compounds tested on velvetleaf (assay: Test Example 4: herbicidal effect by soil treatment (Table 19, symbol M)). Settings: AAH 320 g/ha.
Assay type: in vivo, velvetleaf (Abutilon theophrasti)
Method in brief: as §3

Row | SMILES | M: velvetleaf, herbicidal effect rating
17 | Cc1nn(C)c(=O)c(-c2c(-c3ccc(C(F)(F)F)cc3)sc3ccccc23)c1O [1-129] | 2 (Herbicidal rate of 20% or more and less than 40%)

What follows are compounds tested on wild oat (assay: Test Example 4: herbicidal effect by soil treatment (Table 19, symbol I)). Settings: AAH 320 g/ha.
Assay type: in vivo, wild oat (Avena fatua)
Method in brief: as §3

Row | SMILES | I: wild oat, herbicidal effect rating
18 | Cc1nn(C)c(=O)c(-c2c(-c3ccc(C(F)(F)F)cc3)sc3ccccc23)c1O [1-129] | 0 (Herbicidal rate of 5% or less (almost no effect))

What follows are compounds tested on southern crabgrass (assay: Test Example 4: herbicidal effect by soil treatment (Table 19, symbol F)). Settings: AAH 320 g/ha.
Assay type: in vivo, southern crabgrass (Digitaria ciliaris)
Method in brief: as §3

Row | SMILES | F: southern crabgrass, herbicidal effect rating
19 | Cc1nn(C)c(=O)c(-c2c(-c3ccc(C(F)(F)F)cc3)sc3ccccc23)c1O [1-129] | 0 (Herbicidal rate of 5% or less (almost no effect))

The compounds below were run on wild oat (assay: Test Example 5: herbicidal effect by foliage application, plastic box (Table 20, symbol I)). Settings: foliage application, AAH 320 g/ha, three weeks after application.
Assay type: in vivo, wild oat (Avena fatua)
Method in brief: as §2

Row | SMILES | I: wild oat, herbicidal effect
20 | Cc1nn(C)c(=O)c(-c2c(-c3ccc(C(F)(F)F)cc3)sc3ccccc23)c1O [1-129] | 0 (Herbicidal rate of 5% or less (almost no effect))

What follows are compounds tested on persian speedwell (assay: Test Example 5: herbicidal effect by foliage application, plastic box (Table 20, symbol R)). Settings: foliage application, AAH 320 g/ha, three weeks after application.
Assay type: in vivo, Persian speedwell (Veronica persica)
Method in brief: as §2

Row | SMILES | R: persian speedwell, herbicidal effect
21 | Cc1nn(C)c(=O)c(-c2c(-c3ccc(C(F)(F)F)cc3)sc3ccccc23)c1O [1-129] | 5 (Herbicidal rate of 90% or more (almost completely withered))

The compounds below were run on blackgrass (assay: Test Example 4: herbicidal effect by soil treatment (Table 19, symbol J)). Settings: AAH 320 g/ha.
Assay type: in vivo, blackgrass (Alopecurus myosuroides)
Method in brief: as §3

Row | SMILES | J: blackgrass, herbicidal effect rating
22 | Cc1nn(C)c(=O)c(-c2c(-c3ccc(C(F)(F)F)cc3)sc3ccccc23)c1O [1-129] | 0 (Herbicidal rate of 5% or less (almost no effect))

What follows are compounds tested on redroot pigweed (assay: Test Example 5: herbicidal effect by foliage application, plastic box (Table 20, symbol N)). Settings: foliage application, AAH 320 g/ha, three weeks after application.
Assay type: in vivo, redroot pigweed (Amaranthus retroflexus)
Method in brief: as §2

Row | SMILES | N: redroot pigweed, herbicidal effect
23 | Cc1nn(C)c(=O)c(-c2c(-c3ccc(C(F)(F)F)cc3)sc3ccccc23)c1O [1-129] | 5 (Herbicidal rate of 90% or more (almost completely withered))

These compounds were tested on lambsquarters (assay: Test Example 4: herbicidal effect by soil treatment (Table 19, symbol O)). Settings: AAH 320 g/ha.
Assay type: in vivo, lambsquarters (Chenopodium album)
Method in brief: as §3

Row | SMILES | O: lambsquarters, herbicidal effect rating
24 | Cc1nn(C)c(=O)c(-c2c(-c3ccc(C(F)(F)F)cc3)sc3ccccc23)c1O [1-129] | 5 (Herbicidal rate of 90% or more (almost completely withered))

Each compound was assayed on persian speedwell (assay: Test Example 4: herbicidal effect by soil treatment (Table 19, symbol R)). Settings: AAH 320 g/ha.
Assay type: in vivo, Persian speedwell (Veronica persica)
Method in brief: as §3

Row | SMILES | R: persian speedwell, herbicidal effect rating
25 | Cc1nn(C)c(=O)c(-c2c(-c3ccc(C(F)(F)F)cc3)sc3ccccc23)c1O [1-129] | 4 (Herbicidal rate of 70% or more and less than 90%)

Each compound was assayed on Italian ryegrass (assay: Test Example 5: herbicidal effect by foliage application, plastic box (Table 20, symbol K)). Settings: foliage application, AAH 320 g/ha, three weeks after application.
Assay type: in vivo, Italian ryegrass (Lolium multiflorum)
Method in brief: as §2

Row | SMILES | K: Italian ryegrass, herbicidal effect
26 | Cc1nn(C)c(=O)c(-c2c(-c3ccc(C(F)(F)F)cc3)sc3ccccc23)c1O [1-129] | 5 (Herbicidal rate of 90% or more (almost completely withered))

These compounds were tested on windgrass (assay: Test Example 5: herbicidal effect by foliage application, plastic box (Table 20, symbol L)). Settings: foliage application, AAH 320 g/ha, three weeks after application.
Assay type: in vivo, windgrass (Apera spica-venti)
Method in brief: as §2

Row | SMILES | L: windgrass, herbicidal effect
27 | Cc1nn(C)c(=O)c(-c2c(-c3ccc(C(F)(F)F)cc3)sc3ccccc23)c1O [1-129] | 0 (Herbicidal rate of 5% or less (almost no effect))
